Experimental findings from patent US20160145242A1, “PHENYLIMIDAZOLE DERIVATIVE, AND THERAPEUTIC MEDICINE OR PREVENTIVE MEDICINE FOR INFLAMMATORY DISEASE, ETC” (NIPPON SODA CO., LTD., priority 2013, published 2016) are described below.

The target of data set [1] is T1, guinea pig lung-derived leukotriene C4 synthase (Cavia porcellus, UniProt A6XA80).
T1 construct: guinea pig lung-derived leukotriene C4 synthase; from tissue; host or cells: Dunkin-Hartley guinea pig lung
T1 sequence (A6XA80 1-150): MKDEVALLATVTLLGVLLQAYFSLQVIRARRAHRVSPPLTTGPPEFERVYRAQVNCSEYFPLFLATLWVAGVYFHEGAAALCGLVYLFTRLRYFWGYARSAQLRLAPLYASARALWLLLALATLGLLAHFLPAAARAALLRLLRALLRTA
The data set is described as follows: Leukotriene C4 synthase activity inhibitory action. In kind it is biochemical. Particulars: read-out: leukotriene C4 synthase activity inhibition rate. The procedure: The inhibitory action according to the compound of the present invention with respect to the activity of the present enzyme was examined using guinea pig lung-derived leukotriene C4 synthase.
Dunkin-Hartley guinea pig lung-derived leukotriene C4 synthase was reacted with 2.50 μg/mL of leukotriene A4 and the amount of leukotriene C4 which was a reaction product was measured by an enzyme-linked immunosorbent assay. 3 μM of the compound of the present invention dissolved in dimethyl sulfoxide was added to the reaction system and the inhibition rate of leukotriene C4 generation (leukotriene C4 synthase activity inhibition rate) was measured.

Data set [2] concerns mouse model of retinal light disorders. The data set is described as follows: Retinal light disorder model test (ONL thickness). Conditions: BALB/cCr male mouse, 30 mg/kg oral 30 minutes before 2 hours white light, eyes taken after 4 days. In kind it is in vivo. The procedure: (Retinal Light Disorder Model Test)
The usefulness (improvement rate with respect to retinal light disorders) of the compound of the invention was evaluated using a mouse model of retinal light disorders, generally used as a model of retinal light disorders, (Investigative Ophthalmology & Visual Science, 2002; vol. 43; pp. 1162 to 1167). Here, the improvement rate with respect to the retinal light disorders was calculated based on the thickness of an outer nuclear layer (hereinafter, referred to as “ONL”), which is strongly interfered especially by light application among a retinal cell layers, in a tissue specimen of a perpendicular surface of an eyeball.
Moreover, in the present test, the ONL of a light application group to which only a base was administered was degraded to 30% to 50% of a normal light group.
A test compound was dissolved or suspended in a solvent (1% (w/v) methyl cellulose aqueous solution) and then an administration liquid was prepared so that the test compound to be 30 mg/kg body weight. The dose was set to 10 ml/kg body weight.
A 5-week-old BALB/cCr-based male mouse (weight of approximately 20 g) was bred in a dark place for 48 hours. Subsequently, the test compound administration liquid was orally administered (30 mg/kg). After 30 minutes, […] of white light was continuously applied to the mouse for 2 hours. Next, the mouse was bred in a breeding room with 50 lux of light for 4 days.
An anesthetic (secobarbital sodium) was intraperitoneally administered to anesthetize the mouse and then the mouse was exsanguinated to die. The top portion of the right eyeball was marked with a thread and the eyeball was extracted. […]
The ONL thickness in the tissue specimen was measured for every 200 μm between the optic nerve papilla to where upwardly spaced by 1 mm from the optic nerve papilla using Lumina Vision. The area (AUC) from the optic nerve papilla to where upwardly spaced by 1 mm from the optic papilla in the graph was calculated as an ONL area. […]

Data set [3] deals with human recombinant MAP kinase 1. The data set is described as follows: MAP kinase 1 activity inhibitory action. In kind it is biochemical. Conditions: 3 μM. As for the experimental part: The inhibitory action of the compound of the present invention with respect to the activity of the present enzyme was examined using human recombinant MAP kinase 1.
The human recombinant MAP kinase 1 was reacted with 50.0 μg/mL of myelin basic protein and the amount of ^32P phosphorylated myelin basic protein which was a reaction product was measured by a radioactivity measurement method. 3 μM of the compound according to the present invention dissolved in dimethyl sulfoxide was added to the reaction system and the inhibition rate of ^32P phosphorylated myelin basic protein generation (MAP kinase 1 activity inhibition rate) was measured.

A further data set deals with T2, CYP2D6 (Homo sapiens, UniProt P10635).
T2 construct: Using human liver microsomes pooled as an enzyme source; from tissue; host or cells: pooled human liver microsomes
T2 sequence (P10635 whole entry): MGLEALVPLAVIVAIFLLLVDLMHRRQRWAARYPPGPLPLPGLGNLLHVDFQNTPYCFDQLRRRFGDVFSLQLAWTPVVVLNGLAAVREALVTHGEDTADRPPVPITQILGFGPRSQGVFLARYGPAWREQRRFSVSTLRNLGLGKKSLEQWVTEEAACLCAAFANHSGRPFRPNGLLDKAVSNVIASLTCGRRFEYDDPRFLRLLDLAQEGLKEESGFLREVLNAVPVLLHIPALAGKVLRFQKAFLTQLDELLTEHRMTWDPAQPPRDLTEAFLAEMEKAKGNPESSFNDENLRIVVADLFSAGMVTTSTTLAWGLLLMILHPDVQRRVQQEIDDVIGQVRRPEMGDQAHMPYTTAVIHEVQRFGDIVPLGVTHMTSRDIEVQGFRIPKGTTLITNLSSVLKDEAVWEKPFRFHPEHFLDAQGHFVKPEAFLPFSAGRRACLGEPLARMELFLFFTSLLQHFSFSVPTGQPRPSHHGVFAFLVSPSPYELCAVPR
The data set is described as follows: Cytochrome P450 inhibitory action, CYP2D6 in human liver microsomes. Type of data set: in vitro ADME. Particulars: substrate dextromethorphan. The procedure: An inhibitory action of the compound of the present invention with respect to CYP2D6 (dextromethorphan was used as a substrate) and CYP3A4 (midazolam and testosterone were used as substrates) which are isozymes of cytochrome P450 (hereinafter, referred to as “CYP”) serving as a major drug-metabolizing enzyme was examined using human liver microsomes.
Using human liver microsomes pooled as an enzyme source, 1.3 mM NADP as a coenzyme, 3.3 mM D-glucose-6-phosphate, and 0.4 U/mL D-glucose-6-phosphate dehydrogenase, the corresponding substrate ([…] dextromethorphan for CYP2D6, 5 μM midazolam or 50 µM testosterone for CYP3A4) and the compound of the present invention were added such that the final concentration became 0.1, 1, 10 μM and then incubated at 37° C. for 10 minutes. The inhibition rate (%) of the compound of the present invention in each concentration was calculated by quantifying metabolites (CYP2D6; dextrorphan, CYP3A4; 1-hydroxymidazolam or 6β hydroxytestosterone) using HPLC-MS/MS and setting the value of the activity of an enzyme when drug was not incorporated therein as 100%. […]
For orientation: Liver microsomes are a subcellular fraction often used to study metabolism.

Each structure is given as a SMILES string. Bounds are passed on as bounds.

As for `CC(=O)N1CCN(c2ccc(N)c(-n3ccnc3)c2)CC1` [Compound 1-1, 4-acetyl-1-(4-amino-3-imidazole-1-yl-phenyl)piperazine], the inhibition at 3 µM in data set [1] stood at 27%. Besides, in data set [2], the “ONL thickness improvement rate” value worked out at 100.6%. Also, the “MAP kinase 1 activity inhibition rate” value in data set [3] was 13%. Moreover, the inhibition at 10 min, 10 µM at CYP2D6 (pooled human liver microsomes, probe dextromethorphan (printed 5 M), 10 μM, read-out: inhibition rate in the shown concentration) amounted to 36%. The compound further registered an IC50 on CYP2D6 of more than 10 µM.

One may read the IC50 as the concentration needed to halve the response being measured. Higher therefore signals a need for much substance.
